In patent publication US8883782B2, “Spiro-tetracyclic ring compounds as beta-secretase modulators and methods of use” (Amgen Inc., priority 2010, dated 2014):
Where two headings read alike, the source gives them in different places.

How the values were obtained:
[1] = test system: Aβ40 in conditioned medium of cells stably expressing Amyloid Precursor Protein (APP); assay: In vitro BACE cell-based assay (Aβ40 in conditioned medium, sandwich ELISA); details: read-out: HEK cell assay
Method in brief: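 The sandwich ELISA pairs pAb40 capture (3 h, 4 °C) with 6E10 detection (2 h, 4 °C) and a streptavidin-europium TRF read-out. Supernatants come from APP-expressing cells grown in 10% FBS DMEM.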

[2] = biological target: Beta Secretase enzyme (BACE) (Homo sapiens, UniProt P56817); assay: In vitro enzymatic BACE FRET (fluorescence resonance energy transfer) assay; assay type: biochemical; details: average IC50, enzyme assay; read-out: BACE 1 FRET assay
Chain of Beta Secretase enzyme (BACE) (P56817 46-501, species assumed): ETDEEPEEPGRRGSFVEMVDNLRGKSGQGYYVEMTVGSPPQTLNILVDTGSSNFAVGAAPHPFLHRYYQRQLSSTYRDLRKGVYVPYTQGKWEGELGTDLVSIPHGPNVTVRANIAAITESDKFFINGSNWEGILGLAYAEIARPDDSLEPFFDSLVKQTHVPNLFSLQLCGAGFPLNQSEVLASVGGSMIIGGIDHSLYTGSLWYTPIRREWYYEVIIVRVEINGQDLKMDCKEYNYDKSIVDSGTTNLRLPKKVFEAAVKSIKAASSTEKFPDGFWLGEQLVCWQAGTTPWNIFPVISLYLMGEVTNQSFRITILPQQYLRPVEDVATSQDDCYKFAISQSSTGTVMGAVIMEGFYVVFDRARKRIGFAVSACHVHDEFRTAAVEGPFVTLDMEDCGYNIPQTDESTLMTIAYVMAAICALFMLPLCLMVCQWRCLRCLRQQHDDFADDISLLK
Method in brief: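 Buffer 0.05 M acetate pH 4.2, 10% DMSO final, 100 uM genapol (sub-CMC); start with 50 nM FRET substrate; 1 h incubation; Tris stop; fluorescence read.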

[3] = Homo sapiens, HEK293, average IC50
[4] = Homo sapiens, HEK293, average IC50, HEK cells

SMILES: NC1=N[C@@]2(CS1)c1cc(-c3cccnc3)ccc1Oc1c2cc(-c2cccnc2)nc1F [Example 1031, (5S)-1-fluoro-3,7-di-3-pyridinylspiro[chromeno[2,3-c]pyridine-5,4′-[1,3]thiazol]-2′-amine]
- IC50 [1, 3]: 3 nM
- IC50 [2]: 0.3 nM

SMILES: Cc1ccnc(F)c1-c1ccc2c(c1)[C@@]1(COC(N)=N1)c1cc(-c3ccnc(F)c3)ncc1O2 [Example 237, (5S)-7-(2-fluoro-4-methyl-3-pyridinyl)-3-(2-fluoro-4-pyridinyl)spiro[chromeno[2,3-c]pyridine-5,4′-[1,3]oxazol]-2′-amine]
- IC50 [1, 3]: 22.4 nM
- IC50 [2]: 1.6 nM

SMILES: CC(C)(C#N)COc1cc(F)c2c(c1)[C@]1(COC(N)=N1)c1cc(-c3cnccn3)ccc1O2 [Example 93, (S)-3-(2-amino-5′-fluoro-2′-(pyrazin-2-yl)-5H-spiro[oxazole-4,9′-xanthene]-7′-yloxy)-2,2-dimethylpropanenitrile]
- IC50 [1, 3]: 14.6 nM
- IC50 [2]: 2.8 nM

SMILES: COCC1SC(N)=NC12c1cc(-c3cccnc3F)ccc1Oc1c(F)cc(OC)cc12 [Example 720, (4R)-4′-fluoro-7′-(2-fluoro-3-pyridinyl)-2′-methoxy-5-(methoxymethyl)spiro[1,3-thiazole-4,9′-xanthen]-2-amine, (4S)-4′-fluoro-7′-(2-fluoro-3-pyridinyl)-2′-methoxy-5-(methoxymethyl)spiro[1,3-thiazole-4,9′-xanthen]-2-amine]
- IC50 [1, 3]: 1370 nM
- IC50 [2]: 67 nM

SMILES: NC1=N[C@@]2(CS1)c1cc(-c3cccnc3F)ccc1Oc1ncc(-c3ncccn3)cc12 [Example 728, (5S)-7-(2-fluoro-3-pyridinyl)-3-(2-pyrimidinyl)spiro[chromeno[2,3-b]pyridine-5,4′-[1,3]thiazol]-2′-amine]
- IC50 [1, 3]: 80 nM
- IC50 [2]: 3.5 nM

SMILES: CC#Cc1cncc(-c2ccc3c(c2)[C@@]2(COC(N)=N2)c2cc(C4=CCCOC4)nc(OC)c2O3)c1 [Example 836, (5S)-3-(5,6-dihydro-2H-pyran-3-yl)-1-methoxy-7-(5-(1-propyn-1-yl)-3-pyridinyl)spiro[chromeno[2,3-c]pyridine-5,4′-[1,3]oxazol]-2′-amine]
- IC50 [1, 3]: 4 nM
- IC50 [2]: 0.5 nM

SMILES: CC1(COc2ccc3c(c2)[C@@]2(COC(N)=N2)c2cc(C4=CCOCC4)cc(F)c2O3)COC1 [Example 438, (4S)-2′-(3,6-dihydro-2H-pyran-4-yl)-4′-fluoro-7′-((3-methyl-3-oxetanyl)methoxy)spiro[1,3-oxazole-4,9′-xanthen]-2-amine]
- IC50 [1, 4]: 34.6 nM
- IC50 [2]: 9 nM

SMILES: Cc1ncc(-c2cc(F)c3c(c2)[C@]2(COC(N)=N2)c2cc(-c4ccc(F)nc4)ccc2O3)cn1 [Example 649, (4S)-4′-fluoro-7′-(6-fluoro-3-pyridinyl)-2′-(2-methyl-5-pyrimidinyl)spiro[1,3-oxazole-4,9′-xanthen]-2-amine]
- IC50 [1, 4]: 118 nM
- IC50 [2]: 19.8 nM

SMILES: NC1=N[C@@]2(CO1)c1cc(-c3cccc(Cl)c3)ccc1Oc1cnc(-c3cccc(Cl)c3)cc12 [Example 527, (5S)-3,7-bis(3-chlorophenyl)spiro[chromeno[2,3-c]pyridine-5,4′-[1,3]oxazol]-2′-amine]
- IC50 [1, 4]: 612 nM
- IC50 [2]: 1.5 nM

SMILES: N#Cc1cnc2c(c1)C1(CSC(N)=N1)c1cc(-c3cccnc3F)ccc1O2 (stereo not shown) [Example 627, 2′-amino-7-(2-fluoro-3-pyridinyl)spiro[chromeno[2,3-b]pyridine-5,4′-[1,3]thiazole]-3-carbonitrile]
- IC50 [1, 4]: 1590 nM
- IC50 [2]: 626 nM

SMILES: NC1=N[C@]2(CO1)c1cc(I)ccc1Oc1ncc(Br)cc12 [Example 1017, (5R)-3-bromo-7-iodospiro[chromeno[2,3-b]pyridine-5,4′-[1,3]oxazol]-2′-amine]
- IC50 [1, 3]: 886 nM
- IC50 [2]: 27600 nM

SMILES: NC1=N[C@@]2(CO1)c1cc(-c3c(F)ccnc3F)ccc1Oc1cnc([C@H]3CCCCO3)cc12 [Example 914, (5S)-7-(2,4-difluoro-3-pyridinyl)-3-((2R)-tetrahydro-2H-pyran-2-yl)spiro[chromeno[2,3-c]pyridine-5,4′-[1,3]oxazol]-2′-amine]
- IC50 ([1]; average IC50, HEK cells): 102 nM
- IC50 [2]: 13.5 nM

SMILES: NC1=N[C@@]2(CO1)c1cc(-c3cncc(F)c3)ccc1Oc1c(F)cc(N3CCOCC3)cc12 [Example 277, (4S)-4′-fluoro-7′-(5-fluoro-3-pyridinyl)-2′-(4-morpholinyl)spiro[1,3-oxazole-4,9′-xanthen]-2-amine]
- IC50 [1, 3]: 6.4 nM
- IC50 [2]: 1.5 nM

SMILES: CC1(COc2ccc3c(c2Br)[C@]2(COC(N)=N2)c2cc(-c4cccnc4)ccc2O3)COC1 [Example 517, (4S)-1′-bromo-2′-((3-methyl-3-oxetanyl)methoxy)-7′-(3-pyridinyl)spiro[1,3-oxazole-4,9′-xanthen]-2-amine]
- IC50 [1, 4]: 20.5 nM
- IC50 [2]: 8.4 nM

SMILES: NC1=N[C@@]2(CO1)c1cc(-c3cccnc3F)ccc1Oc1c(F)cc(-n3cccn3)cc12 [Example 691, (4S)-4′-fluoro-7′-(2-fluoro-3-pyridinyl)-2′-(1H-pyrazol-1-yl)spiro[1,3-oxazole-4,9′-xanthen]-2-amine]
- IC50 [1, 4]: 63 nM
- IC50 [2]: 2 nM

SMILES: CC1(C)C=C(c2cnc3c(c2)[C@]2(CSC(N)=N2)c2cc(-c4cncnc4)ccc2O3)CCO1 [Example 670, (5S)-3-(6,6-dimethyl-3,6-dihydro-2H-pyran-4-yl)-7-(5-pyrimidinyl)spiro[chromeno[2,3-b]pyridine-5,4′-[1,3]thiazol]-2′-amine]
- IC50 [1, 4]: 9 nM
- IC50 [2]: 0.9 nM

SMILES: COc1nc(C2=CCOCC2)cc2c1Oc1ccc(-c3cccnc3)cc1[C@@]21COC(N)=N1 [Example 840, (5S)-3-(3,6-dihydro-2H-pyran-4-yl)-1-methoxy-7-(3-pyridinyl)spiro[chromeno[2,3-c]pyridine-5,4′-[1,3]oxazol]-2′-amine]
- IC50 [1, 3]: 15 nM
- IC50 [2]: 4.3 nM

SMILES: CC#Cc1cncc(-c2ccc3c(c2)[C@@]2(COC(N)=N2)c2cc(Cl)nc(F)c2O3)c1 [Example 761, (5S)-3-chloro-1-fluoro-7-(5-(1-propyn-1-yl)-3-pyridinyl)spiro[chromeno[2,3-c]pyridine-5,4′-[1,3]oxazol]-2′-amine]
- IC50 [1, 3]: 185 nM
- IC50 [2]: 0.9 nM

SMILES: CC(C)(C)C#Cc1ccc2c(c1)[C@@]1(COC(N)=N1)c1cc(C3=CCOCC3)ncc1O2 [Example 161, (5S)-3-(3,6-dihydro-2H-pyran-4-yl)-7-(3,3-dimethyl-1-butyn-1-yl)spiro[chromeno[2,3-c]pyridine-5,4′-[1,3]oxazol]-2′-amine]
- IC50 [1, 3]: 108 nM
- IC50 [2]: 9.7 nM

SMILES: COC[C@H]1SC(N)=NC12c1cc(-c3cccnc3F)ccc1Oc1c(F)cc(OC)cc12 (stereo partly drawn) [Example 1092, (4S/R,5S)-4′-fluoro-7′-(2-fluoropyridin-3-yl)-2′-methoxy-5-(methoxymethyl)-5H-spiro[thiazole-4,9′-xanthen]-2-amine]
- IC50 ([1]; average IC50, HEK cells): 498 nM
- IC50 [2]: 5.7 nM

SMILES: Cc1ccc(-c2cnc3c(c2)[C@]2(CSC(N)=N2)c2cc(C#CC4(C)COC4)ccc2O3)cn1 [Example 940, (5S)-7-((3-methyl-3-oxetanyl)ethynyl)-3-(6-methyl-3-pyridinyl)spiro[chromeno[2,3-b]pyridine-5,4′-[1,3]thiazol]-2′-amine]
- IC50 [1, 4]: 60 nM
- IC50 [2]: 5.4 nM

SMILES: NC1=N[C@]2(CO1)c1cc(N3CC[C@@H](F)C3)cc(F)c1Oc1ccc(-c3cncnc3)c(F)c12 [Example 1052, (4R)-1′,5′-difluoro-7′-((3R)-3-fluoro-1-pyrrolidinyl)-2′-(5-pyrimidinyl)spiro[1,3-oxazole-4,9′-xanthen]-2-amine]
- IC50 [1, 3]: 67 nM
- IC50 [2]: 38.3 nM

SMILES: NC1=N[C@]2(CS1)c1cc(-c3cccnc3F)ccc1Oc1ncc(C3=CCOCC3)cc12 [Example 577, (5R)-3-(3,6-dihydro-2H-pyran-4-yl)-7-(2-fluoro-3-pyridinyl)spiro[chromeno[2,3-b]pyridine-5,4′-[1,3]thiazol]-2′-amine]
- IC50 [1, 4]: 16.4 nM
- IC50 [2]: 1.7 nM

SMILES: CC1(C)C[C@H](c2cc3c(cn2)Oc2ccc(-c4cncnc4)cc2[C@@]32COC(N)=N2)CCO1 [Example 544, (5S)-3-((4R)-2,2-dimethyltetrahydro-2H-pyran-4-yl)-7-(5-pyrimidinyl)spiro[chromeno[2,3-c]pyridine-5,4′-[1,3]oxazol]-2′-amine]
- IC50 [1, 4]: 122 nM
- IC50 [2]: 8.4 nM

SMILES: N#Cc1cc(-c2ccc3c(c2)[C@@]2(CSC(N)=N2)c2cc(C4=CCCOC4)cnc2O3)ccc1F [Example 783, 5-((5S)-2′-amino-3-(5,6-dihydro-2H-pyran-3-yl)spiro[chromeno[2,3-b]pyridine-5,4′-[1,3]thiazol]-7-yl)-2-fluorobenzonitrile]
- IC50 [1, 3]: 10 nM
- IC50 [2]: 0.6 nM

SMILES: COc1ccc2c(c1)[C@@]1(COC(N)=N1)c1cc(N3CCN(C)C(C)(C)C3)cc(F)c1O2 [Example 532, (4S)-4′-fluoro-7′-methoxy-2′-(3,3,4-trimethyl-1-piperazinyl)spiro[1,3-oxazole-4,9′-xanthen]-2-amine]
- IC50 [1, 4]: 169 nM
- IC50 [2]: 2370 nM

SMILES: COc1ccc(F)c(-c2ccc3c(c2)[C@@]2(COC(N)=N2)c2cc(C4=CCOCC4)cnc2O3)c1 [Example 323, (5S)-3-(3,6-dihydro-2H-pyran-4-yl)-7-(2-fluoro-5-methoxyphenyl)spiro[chromeno[2,3-b]pyridine-5,4′-[1,3]oxazol]-2′-amine]
- IC50 [1, 3]: 15.5 nM
- IC50 [2]: 1.4 nM

SMILES: NC1=N[C@]2(CS1)c1cc(-c3cccnc3F)c(F)cc1Oc1c(F)cc(N3CCOCC3)cc12 [Example 880, (4R)-3′,5′-difluoro-2′-(2-fluoro-3-pyridinyl)-7′-(4-morpholinyl)spiro[1,3-thiazole-4,9′-xanthen]-2-amine]
- IC50 [1, 4]: ≥ 10000 nM
- IC50 [2]: 1230 nM

SMILES: NC1=N[C@@]2(CO1)c1cc(-c3cccnc3F)ccc1Oc1c(F)cc([C@@H]3CCCOC3)cc12 [Example 286, (4S)-4′-fluoro-7′-(2-fluoro-3-pyridinyl)-2′-((3S)-tetrahydro-2H-pyran-3-yl)spiro[1,3-oxazole-4,9′-xanthen]-2-amine]
- IC50 [1, 3]: 15.8 nM
- IC50 [2]: 1.9 nM
